According to PubChem BioAssay AID2060508 (Molecular Pharmacology Branch, DTP, NCI, 2025):

Test system: 454973-116-R2-J3-PDC spheroids, viability, % test/control
Assay: Anticancer human tumor 454973-116-R2-J3-PDC patient-derived pancreatic carcinoma cell line growth inhibition [GQUAD]
Details: spheroids with HUVEC and MSC; for IC50: curve of first compound; for viability, T/C: stronger effect = lower value; active = viability on the fitted dose curve at most 10% of control; inactive = the rest
Summary of the method: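 Viability of tumor cells grown as complex spheroids with endothelial and stromal cells, exposed to drug combinations. Top concentration at or near clinical Cmax (else 10 microM), diluted in half-log increments.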

[1] = second compound 0.0316 µM, first compound 0.000999 µM
[2] = second compound 0.0316 µM, first compound 0.00316 µM
[3] = second compound 0.0316 µM, first compound 0.00999 µM
[4] = second compound 0.0316 µM, first compound 0.0316 µM
[5] = second compound 0.0316 µM, first compound 0.0999 µM
[6] = second compound 0.0316 µM, first compound 0.316 µM
[7] = second compound 0.1 µM, first compound 0.000999 µM
[8] = second compound 0.1 µM, first compound 0.00316 µM
[9] = second compound 0.1 µM, first compound 0.00999 µM
[10] = second compound 0.1 µM, first compound 0.0316 µM
[11] = second compound 0.1 µM, first compound 0.0999 µM
[12] = second compound 0.1 µM, first compound 0.316 µM
[13] = second compound 0.316 µM, first compound 0.000999 µM
[14] = second compound 0.316 µM, first compound 0.00316 µM
[15] = second compound 0.316 µM, first compound 0.00999 µM
[16] = second compound 0.316 µM, first compound 0.0316 µM
[17] = second compound 0.316 µM, first compound 0.0999 µM
[18] = second compound 0.316 µM, first compound 0.316 µM
[19] = second compound 1 µM, first compound 0.000999 µM
[20] = second compound 1 µM, first compound 0.00316 µM
[21] = second compound 1 µM, first compound 0.00999 µM
[22] = second compound 1 µM, first compound 0.0316 µM
[23] = second compound 1 µM, first compound 0.0999 µM
[24] = second compound 1 µM, first compound 0.316 µM
[25] = second compound 3.16 µM, first compound 0.000999 µM
[26] = second compound 3.16 µM, first compound 0.00316 µM
[27] = second compound 3.16 µM, first compound 0.00999 µM
[28] = second compound 3.16 µM, first compound 0.0316 µM
[29] = second compound 3.16 µM, first compound 0.0999 µM
[30] = second compound 3.16 µM, first compound 0.316 µM
[31] = second compound 10 µM, first compound 0.000999 µM
[32] = second compound 10 µM, first compound 0.00316 µM
[33] = second compound 10 µM, first compound 0.00999 µM
[34] = second compound 10 µM, first compound 0.0316 µM
[35] = second compound 10 µM, first compound 0.0999 µM
[36] = second compound 10 µM, first compound 0.316 µM
[37] = second compound 0.0316 µM, first compound 0.1 µM
[38] = second compound 0.0316 µM, first compound 1 µM
[39] = second compound 0.0316 µM, first compound 3.16 µM
[40] = second compound 0.0316 µM, first compound 10 µM
[41] = second compound 0.1 µM, first compound 0.1 µM
[42] = second compound 0.1 µM, first compound 1 µM
[43] = second compound 0.1 µM, first compound 3.16 µM
[44] = second compound 0.1 µM, first compound 10 µM
[45] = second compound 0.316 µM, first compound 0.1 µM
[46] = second compound 0.316 µM, first compound 1 µM
[47] = second compound 0.316 µM, first compound 3.16 µM
[48] = second compound 0.316 µM, first compound 10 µM
[49] = second compound 1 µM, first compound 0.1 µM
[50] = second compound 1 µM, first compound 1 µM
[51] = second compound 1 µM, first compound 3.16 µM
[52] = second compound 1 µM, first compound 10 µM
[53] = second compound 3.16 µM, first compound 0.1 µM
[54] = second compound 3.16 µM, first compound 1 µM
[55] = second compound 3.16 µM, first compound 3.16 µM
[56] = second compound 3.16 µM, first compound 10 µM
[57] = second compound 10 µM, first compound 0.1 µM
[58] = second compound 10 µM, first compound 1 µM
[59] = second compound 10 µM, first compound 3.16 µM
[60] = second compound 10 µM, first compound 10 µM
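Also: spheroids exposed to compounds for seven days.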
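For viability, T/C in this document: 100% = DMSO vehicle control viability.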

CC[C@@]1(O)C(=O)OCc2c1cc1n(c2=O)Cc2cc3c(CN(C)C)c(O)ccc3nc2-1 + CN(C)c1ccc(Nc2c3ccc(NC(=O)CCN4CCCC4)cc3nc3cc(NC(=O)CCN4CCCC4)ccc23)cc1
39.5 nM: IC50 (second compound 0.1 µM)
inactive: viability, T/C [1] 97.5% | viability, T/C [2] 97.7% | viability, T/C [3] 99.5% | viability, T/C [4] 64% | viability, T/C [5] 18.2% | viability, T/C [6] 20.1% | viability, T/C [7] 111% | viability, T/C [8] 102% | viability, T/C [9] 88.4% | viability, T/C [10] 60.6% | viability, T/C [11] 18.2% | viability, T/C [12] 20.5% | viability, T/C [13] 101% | viability, T/C [14] 111% | viability, T/C [15] 82.1% | viability, T/C [16] 51.3% | viability, T/C [17] 23.4% | viability, T/C [18] 23% | viability, T/C [19] 99.3% | viability, T/C [20] 89.8% | viability, T/C [21] 87.1% | viability, T/C [22] 51.7% | viability, T/C [23] 20.3% | viability, T/C [24] 21.7% | viability, T/C [25] 98.7% | viability, T/C [26] 82.4% | viability, T/C [27] 83% | viability, T/C [28] 47.7% | viability, T/C [29] 27.6% | viability, T/C [30] 23.4% | viability, T/C [31] 83.9% | viability, T/C [32] 71.8% | viability, T/C [33] 61.5% | viability, T/C [34] 53.6% | viability, T/C [35] 31% | viability, T/C [36] 25.7%
29.9 nM: IC50 (second compound 3.16 µM)
32.7 nM: IC50 (second compound 1 µM)
28.8 nM: IC50 (second compound 10 µM)
30.3 nM: IC50 (second compound 0.316 µM)
45.3 nM: IC50 (second compound 0.0316 µM)

O=c1[nH]cc(F)c(=O)[nH]1 + Cc1cnc(CNC(=O)c2c(=O)c3ccc(N4CCCN(C)CC4)nc3n3c2sc2ccccc23)cn1
1640 nM: IC50 (second compound 0.0316 µM)
> 10000 nM: IC50 (second compound 0.316 µM) | IC50 (second compound 1 µM) | IC50 (second compound 3.16 µM)
inactive: viability, T/C [4] 103% | viability, T/C [37] 92.6% | viability, T/C [6] 98.9% | viability, T/C [38] 59.6% | viability, T/C [39] 33.9% | viability, T/C [40] 40.7% | viability, T/C [10] 89.7% | viability, T/C [41] 90.1% | viability, T/C [12] 78.6% | viability, T/C [42] 66.3% | viability, T/C [43] 37.9% | viability, T/C [44] 44.8% | viability, T/C [16] 73.8% | viability, T/C [45] 84.2% | viability, T/C [18] 78.1% | viability, T/C [46] 60.2% | viability, T/C [47] 46.5% | viability, T/C [48] 53.8% | viability, T/C [22] 66.8% | viability, T/C [49] 67.2% | viability, T/C [24] 79.4% | viability, T/C [50] 60.7% | viability, T/C [51] 50.1% | viability, T/C [52] 52.3% | viability, T/C [28] 62.1% | viability, T/C [53] 64.4% | viability, T/C [30] 64.2% | viability, T/C [54] 57.3% | viability, T/C [55] 59.3% | viability, T/C [56] 53.9% | viability, T/C [34] 0.72% | viability, T/C [57] 17.2% | viability, T/C [36] 52.7% | viability, T/C [58] 48% | viability, T/C [59] 18.3% | viability, T/C [60] 0.22%
< 31.6 nM: IC50 (second compound 10 µM)
2200 nM: IC50 (second compound 0.1 µM)

CC1COCCN1c1cc(-c2ccnn2C)c2ccnc(-c3ccn[nH]3)c2n1 (stereo not given) + Cc1cnc(CNC(=O)c2c(=O)c3ccc(N4CCCN(C)CC4)nc3n3c2sc2ccccc23)cn1
active: viability, T/C [34] 0.13% | viability, T/C [57] 0.16% | viability, T/C [36] 2.37% | viability, T/C [58] 0.14% | viability, T/C [59] 0.16% | viability, T/C [60] 0.17%
inactive: viability, T/C [4] 58.3% | viability, T/C [37] 26.2% | viability, T/C [6] 17.6% | viability, T/C [38] 18.5% | viability, T/C [39] 21.3% | viability, T/C [40] 21.7% | viability, T/C [10] 35.7% | viability, T/C [41] 23.1% | viability, T/C [12] 18.9% | viability, T/C [42] 14.7% | viability, T/C [43] 18.3% | viability, T/C [44] 23.3% | viability, T/C [16] 33.7% | viability, T/C [45] 20% | viability, T/C [18] 18.6% | viability, T/C [46] 16.8% | viability, T/C [47] 19.4% | viability, T/C [48] 21.6% | viability, T/C [22] 39.7% | viability, T/C [49] 27.9% | viability, T/C [24] 27% | viability, T/C [50] 24.2% | viability, T/C [51] 22.6% | viability, T/C [52] 19.5% | viability, T/C [28] 40.3% | viability, T/C [53] 34.5% | viability, T/C [30] 31.5% | viability, T/C [54] 27.2% | viability, T/C [55] 20.2% | viability, T/C [56] 20.3%
< 31.6 nM: IC50 (second compound 0.1 µM) | IC50 (second compound 0.316 µM) | IC50 (second compound 1 µM) | IC50 (second compound 3.16 µM) | IC50 (second compound 10 µM)
42.3 nM: IC50 (second compound 0.0316 µM)

CCc1c2c(nc3ccc(O)cc13)-c1cc3c(c(=O)n1C2)COC(=O)[C@]3(O)CC + Cc1cnc(CNC(=O)c2c(=O)c3ccc(N4CCCN(C)CC4)nc3n3c2sc2ccccc23)cn1
active: viability, T/C [5] 7.38% | viability, T/C [6] 4.15% | viability, T/C [11] 7.21% | viability, T/C [12] 4.8% | viability, T/C [18] 4.86% | viability, T/C [23] 7.17% | viability, T/C [24] 2.75% | viability, T/C [29] 7.65% | viability, T/C [30] 0.55% | viability, T/C [35] 0.24% | viability, T/C [36] 0.7%
< 0.999 nM: IC50 (second compound 0.0316 µM) | IC50 (second compound 0.1 µM) | IC50 (second compound 0.316 µM) | IC50 (second compound 10 µM)
inactive: viability, T/C [1] 45.7% | viability, T/C [2] 24.6% | viability, T/C [3] 22.9% | viability, T/C [4] 12.3% | viability, T/C [7] 36.2% | viability, T/C [8] 24.1% | viability, T/C [9] 22.9% | viability, T/C [10] 14.8% | viability, T/C [13] 37.7% | viability, T/C [14] 34.2% | viability, T/C [15] 33.7% | viability, T/C [16] 15.9% | viability, T/C [17] 7.83% | viability, T/C [19] 47.1% | viability, T/C [20] 54.1% | viability, T/C [21] 36.5% | viability, T/C [22] 22.2% | viability, T/C [25] 59.7% | viability, T/C [26] 51.9% | viability, T/C [27] 40% | viability, T/C [28] 26.1% | viability, T/C [31] 16.4% | viability, T/C [32] 16.7% | viability, T/C [33] 38.7% | viability, T/C [34] 0.26%
4.04 nM: IC50 (second compound 3.16 µM)
1.45 nM: IC50 (second compound 1 µM)

COc1ccc([C@@H](O)c2cc(-c3ncnc4cc(N5CCOCC5)ccc34)c(F)cc2Cl)nn1 + CN(C)c1ccc(Nc2c3ccc(NC(=O)CCN4CCCC4)cc3nc3cc(NC(=O)CCN4CCCC4)ccc23)cc1
inactive: viability, T/C [4] 101% | viability, T/C [37] 94.6% | viability, T/C [6] 96.3% | viability, T/C [38] 82.8% | viability, T/C [39] 69.1% | viability, T/C [40] 55.7% | viability, T/C [10] 112% | viability, T/C [41] 98.5% | viability, T/C [12] 101% | viability, T/C [42] 82.9% | viability, T/C [43] 65.5% | viability, T/C [44] 51.5% | viability, T/C [16] 93.3% | viability, T/C [45] 91.5% | viability, T/C [18] 89.1% | viability, T/C [46] 76.1% | viability, T/C [47] 66.5% | viability, T/C [48] 48.5% | viability, T/C [22] 89.5% | viability, T/C [49] 86.3% | viability, T/C [24] 88.2% | viability, T/C [50] 76.6% | viability, T/C [51] 59.4% | viability, T/C [52] 44.7% | viability, T/C [28] 86.1% | viability, T/C [53] 91.2% | viability, T/C [30] 85.2% | viability, T/C [54] 68.9% | viability, T/C [55] 59.9% | viability, T/C [56] 40.7% | viability, T/C [34] 76.6% | viability, T/C [57] 68.2% | viability, T/C [36] 81.9% | viability, T/C [58] 61.4% | viability, T/C [59] 50% | viability, T/C [60] 27.6%
> 10000 nM: IC50 (second compound 0.0316 µM) | IC50 (second compound 0.1 µM)
6560 nM: IC50 (second compound 1 µM)
2890 nM: IC50 (second compound 10 µM)
5390 nM: IC50 (second compound 3.16 µM)
9200 nM: IC50 (second compound 0.316 µM)
